Reference: US20220096515A1, “Methods and Formulations for Preventing Neurological or Psychiatric Disorders” (Huntington Medical Research Institutes, priority 2020, published 2022)

Key:
Gabrb3^ECKO mice = assay: Light-dark transition test; assay type: in vivo, mouse; details: after prenatal treatment
Method: Behavioral Experiments: Mice were housed in our animal facility with a 12-hour light cycle with ad libitum access to food and water. Offspring stayed with their mothers until weaning at PND 21 after which males and females were separated. Before all behavioral testing, mice were acclimated to the testing room for 1 hour. Behavioral assays were performed according to established protocols referenced here: self-grooming, light-dark box, tail suspension test, Y-maze, open field locomotion activity, three chamber social interaction test and nest building with nestlets and with shredded paper. Both males and females were used for all behavioral assays. Experimenters scoring behaviors were blinded to the genotypes and treatment. Sample sizes for each assay are noted in figure legends.
Anxiety was next assessed with the classic light-dark transition test which triggers a struggle between the desires to explore a novel environment versus natural aversion of a brightly illuminated open space. […] The Y maze spontaneous alternation test was used to evaluate for spatial learning and memory in the three groups of mice. After introduction to the center of the maze, the mice were given free access to all three arms. […] The total number of arm entries and the sequence of entries are recorded in order to calculate the percentage of alternation. […]

[1] = system: Gabrb3^ECKO endothelial cells; assay: qRT-PCR of periventricular endothelial cells after prenatal treatment; assay type: in vivo, mouse
Method: (§1) Primary culture of endothelial cells and endothelial cell staining: Embryonic brains were dissected under a stereo-microscope, after the NAD^+ treatment paradigm and the telencephalon was removed. Pial membranes were peeled off. Telencephalon without pial membranes from the periventricular region was pooled. Purity of endothelial cell cultures was established with endothelial cell markers and determined to be one hundred percent. Isolation and culture of endothelial cells were performed according to published methodology. Periventricular endothelial cells were prepared from CD1 (wild type), saline-treated Gabrb3^fl/fl, saline-treated Gabrb3^ECKO, and NAD^+-treated Gabrb3^ECKO embryos. Endothelial cells were labeled with anti-biotinylated isolectinB4 (1:100, Sigma), anti-GABA (1:400, Sigma), anti-DAXX (1:100, Santa Cruz Biotechnology) and anti-P2X4 (1:100, Abclonal) followed by secondary detection with AlexaFluor conjugates (Invitrogen). DAPI (Invitrogen) was used to label nuclei. Images were taken on an FSX100 microscope (Olympus). 1 million cells were examined for each immunohistochemistry condition.
Quantitative real-time PCR: RT was performed by using iScript Reverse Transcription Supermix kit (Bio-Rad). PCR reactions were run on a CFX96 Touch Real Time PCR (Bio-Rad) with SsoAdvanced™ Universal SYBR® Green Supermix (Bio-Rad). Primers for qPCR (Daxx, P2x4, P2x7, P2y13, Tek, vwf, F2r, Sirt2, Nos1, Nrp1, Pax6, Gad1, Gad2, Grin2a, Trpm2, Trpc4 and Trpv6) were obtained from Thermo Fisher Scientific. The housekeeping gene Gapdh was used as a reference. The relative gene expression and subsequent fold changes among different samples were determined according to published methodology.
To gain mechanistic insights into NAD^+ action on endothelial cells, periventricular endothelial cells were isolated from saline-treated Gabrb3^fl/fl, saline-treated Gabrb3^ECKO, and NAD^+-treated Gabrb3^ECKO groups at the end of the treatment paradigm. […] GABA is synthesized from glutamate by Gad genes. […] The qRT-PCR gene expression levels followed a similar trend with that of the levels in the microarray data, reinforcing that the whole-tissue microarray was capable of highlighting some endothelial cells specific gene changes (FIGS. 10A-10I). […] Taken together, our results implicate NAD^+ as a critical modulator of angiogenesis in the embryonic forebrain.

[2] = system: periventricular endothelial cells isolated from E15 wildtype (CD1) forebrain; assay: Tube formation under normal culture conditions (no Matrigel); assay type: cell-based, mouse; details: absence of Matrigel
Method: as §1
In one experiment, periventricular endothelial cells were isolated from E15 wildtype (CD1) forebrain and tested the effect of NAD^+ addition in vitro. […]

[3] = system: periventricular endothelial cells isolated from E15 wildtype (CD1) forebrain; assay: Endothelial cell proliferation in culture (confluency, BrdU labeling index); assay type: cell-based, mouse
Method: as §1
Endothelial cell proliferation and long-distance cell migration assay: To test for cell proliferation, CD1 periventricular endothelial cells (1 million cells per experiment) were incubated in the presence of the mitotic marker 5-bromo-2′-deoxyuridine (0.05% BrdU) with or without muscimol, for 1 hour to examine the impact on proliferation of these cells and processed for BrdU immunohistochemistry.
In one experiment, periventricular endothelial cells were isolated from E15 wildtype (CD1) forebrain and tested the effect of NAD^+ addition in vitro. Exogenous addition of 100 μM NAD^+ was able to initiate significant endothelial cell proliferation within 2 days of culture and a 35 mm culture dish was confluent within 4-6 days (FIGS. 2A-2D). This was an interesting observation, since untreated periventricular endothelial cells take approximately 12 days to reach confluency in 35mm dishes, in our well-established culture conditions. […] Vital elements of angiogenesis include effective endothelial cell proliferation, migration, sprouting, alignment, tube formation and branching. […] In some areas of the dish, the NAD^+-treated endothelial cells seemed to align and fold into tubular shapes (FIG. 2H), aspects that we have not seen in wild type or untreated periventricular endothelial cells in normal culture conditions.
Effects of NAD^+ addition to periventricular endothelial cells isolated from E15 wildtype (CD1) forebrain was more robust than GABA. (FIGS. 17A-17F) Phase contrast images of periventricular endothelial cells cultured from E15 CD1 forebrain at different time points in untreated conditions (FIGS. 17A-17B) or after plating with NAD^+ addition (100 μM; FIGS. 17C-17D) or GABA addition (5 μM; FIGS. 17E-17F). […] (FIG. 17G) All groups of periventricular endothelial cells were exposed to BrdU (1 mM BrdU per ml medium) for 1 hour followed by Isolectin B4/BrdU double labeling. Quantification of BrdU labeling indices; Data represents mean±SD (n=8, *P<0.05; Student's t-test).

[4] = periventricular endothelial cells after prenatal treatment

NC(=O)c1ccc[n+]([C@@H]2O[C@H](COP(=O)([O-])OP(=O)(O)OC[C@H]3O[C@@H](n4cnc5c(N)ncnc54)[C@H](O)[C@@H]3O)[C@@H](O)[C@H]2O)c1 [NAD^+]
time in light vs dark sides (Gabrb3^ECKO mice): spent equivalent times between the light and dark sides of the open field
P2X7 and P2Y13 mRNA expression ([1]; after NAD^+ treatment): rescue of P2X7 and P2Y13 mRNA expression
Gad1 and Gad2 expression by qRT-PCR [1, 4]: concurrently rescued
calcium signaling genes (Grin2a, Trpm2, Trpc4, Trpv6) by qRT-PCR [1, 4]: rescue of several calcium signaling genes
expression of angiogenesis regulators (Tek, vWF, F2r, Sirt2, Nos1, Pax6) by qRT-PCR [1, 4]: restored the expression of several critical regulators of angiogenesis
tube formation [2]: started showing tube formation properties under normal culture conditions
endothelial cell proliferation (phase contrast) ([3]; 100 μM): Robust proliferation
time to initiate significant endothelial cell proliferation ([3]; 100 μM NAD^+, days of culture): ≤ 2 days
time until 35 mm culture dish was confluent ([3]; 100 μM NAD^+, untreated cells approximately 12 days): 4 to 6 days
endothelial cell BrdU labeling index ([3]; NAD^+ addition vs untreated): significantly increased
